From ChEMBL document CHEMBL1201862, “PubChem BioAssay data set” (2004) come the findings set out here.

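Each compound was tested at five concentrations against cells in 96-well plates for 48 hours. GI50 is the concentration that inhibits growth by half.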 Active and inactive are the calls of the source. Cut-off read from the data, not from the text of the source: active = GI50 up to about 1.1 µM and inactive = higher.

Experiment in all cases: growth of human tumour cells (NCI), 48 h
Test [1] relates to DMS-273.
Test [2] relates to KM-20L2.
The test system of test [3] is SK-MEL-2.
Test [4] relates to HOP-62.
Test [5] has as its system IGROV-1.
Test [6] has as its system TK-10.
Test [7] concerns K562.
The test system of test [8] is SNB-19.
In test [9] the test system is SF-295.
Test [10] concerns HL-60.
Test [11] concerns HCC 2998.
The test system of test [12] is SK-MEL-28.
In test [13] the test system is SN12C.
The subject of test [14] is HCT-15.
Test [15] has as its system DLD-1.
In test [16] the test system is UACC-62.
Test [17] deals with NCI-H226.
In test [18] the test system is MCF7.
Test [19] concerns PC-3.
Test [20] has as its system HOP-92.

On to `CCOP(=O)(OCC)C1CCCOC1=O` (centres undefined), for which the GI50 in test [1], in [2], in [3], in [4], in test [5] and in test [6] was > 100 µM (inactive) each time. Moreover, the GI50 in test [7], in test [8], in [9], in test [10], in test [11] and in [12] was > 100 µM (inactive) in each case. Moreover, the GI50 in [13] is > 100 µM (inactive); in test [14] it was more than 100 µM; in [15], > 100 µM (inactive); in test [16], > 100 µM (inactive).
For the molecule `Cc1cc(O)nc(NN2C(Cl)C(=O)C2c2ccc(O)cc2)n1` (centres undefined), the GI50 is 10.5 µM (inactive) in test [17]; 4.03 µM (inactive) in test [18]; 5.32 µM (inactive) in test [1]; 13.2 µM (inactive) in test [19]; 18.7 µM (inactive) in test [2]; 12.6 µM (inactive) in [3]. In addition, the GI50 was 6.17 µM (inactive) in [4]; 7.71 µM (inactive) in [5]; 14.9 µM (inactive) in [20]; 14.9 µM (inactive) in test [6]; 2.37 µM (inactive) in test [7]; 11 µM (inactive) in test [8]. The GI50 in test [9] is 9.48 µM (inactive); in [10], 2.79 µM (inactive); in test [11], 11.2 µM (inactive); in [12], 11.1 µM (inactive); in test [13] it was 11.2 µM (inactive); in [14], 4.31 µM. In addition, in test [16], the GI50 was 5.04 µM (inactive).
Turning to `COc1cc(-c2cc(=O)c3ccccc3o2)ccc1N`, the GI50 in [17] was 15.2 µM (inactive); in test [1] it was 50.2 µM (inactive); in test [2], 49.5 µM (inactive); in [3], > 100 µM (inactive); in test [4], 41 µM (inactive); in [5], > 100 µM (inactive). Also, the GI50 was 33.8 µM (inactive) in [20]; > 100 µM (inactive) in [6]; 60.8 µM (inactive) in test [7]; 43.4 µM (inactive) in [8]; 46.7 µM (inactive) in test [9]; 16.6 µM (inactive) in test [10]. Further, the GI50 in test [11] is > 100 µM (inactive); in test [12], > 100 µM (inactive); in [13], 65.8 µM (inactive); in test [14], 27 µM; in [16], 79.8 µM (inactive).
For the molecule `Cc1cc(Br)ccc1/N=N/C1C(=O)ON=C1c1ccccc1` (centres undefined), the GI50 was > 100 µM (inactive) in test [17]; > 100 µM (inactive) in test [1]; 55.2 µM (inactive) in test [2]; > 100 µM (inactive) in test [3]; > 100 µM (inactive) in [4]; > 100 µM (inactive) in [5]. Also, the GI50 in test [20] is > 100 µM (inactive); in test [6] it was 69.3 µM (inactive); in test [7], 45 µM (inactive); in test [8], > 100 µM (inactive); in test [9], > 100 µM (inactive); in test [10], 32.1 µM (inactive). Besides, the GI50 in test [11] was 26.5 µM (inactive); in [12], > 100 µM (inactive); in test [13], > 100 µM (inactive); in test [15], 90.2 µM (inactive); in test [16], > 100 µM (inactive).
In the case of `N#CC(C(=O)C(=O)Nc1ccccc1)c1ccccc1` (centres undefined), the GI50 in [17], in [1], in [2], in test [3], in test [5] and in test [20] was > 100 µM (inactive) each time. The GI50 in [6], in [7], in [8], in [9], in test [10] and in test [12] was > 100 µM (inactive) in each case. Moreover, the GI50 was > 100 µM (inactive) in [13], more than 100 µM in test [14], > 100 µM (inactive) in test [15] and > 100 µM (inactive) in test [16].
Consider `CO/N=C(/C(=O)Nc1c[n+](CC(=O)[O-])cs1)c1csc(N)n1`, for which the GI50 in test [17], in test [1], in test [2], in test [3], in test [5] and in test [20] was > 100 µM (inactive) throughout. The GI50 in [6], in [7], in test [8], in test [9], in test [10] and in [11] was > 100 µM (inactive) throughout. Also, the GI50 in test [13] is > 100 µM (inactive); in test [14], more than 100 µM; in [15], > 100 µM (inactive); in [16], > 100 µM (inactive).
On to `CC1OC(OCC2COC(O)(Oc3c(-c4ccc(O)c(O)c4)oc4cc(O)cc(O)c4c3=O)C(O)C2O)C(O)C(O)C1O` (centres undefined), for which the GI50 in test [17], in test [1], in [2], in test [4], in [5] and in test [20] was > 100 µM (inactive) each time. Moreover, the GI50 in test [6], in test [7], in test [8], in [9], in test [10] and in [11] was > 100 µM (inactive) each time. In addition, the GI50 in test [12] was > 100 µM (inactive); in [13], > 100 µM (inactive); in test [14], more than 100 µM; in [15], > 100 µM (inactive); in test [16], > 100 µM (inactive).
For `N#CC(Cl)CS(=O)(=O)c1ccccc1` (centres undefined), the GI50 in test [17] was 22.1 µM (inactive); in [18] it was 10.2 µM (inactive); in test [19], 17.5 µM (inactive); in [2], 18.7 µM (inactive); in test [3], 16.1 µM (inactive); in test [4], > 44.6 µM (inactive). Also, the GI50 in [5] was 16.9 µM (inactive); in [20] it was 2.02 µM (inactive); in [6], 3.7 µM (inactive); in test [7], 1.97 µM (inactive); in test [8] it was 18.9 µM (inactive); in test [9] it was 18.7 µM (inactive). Moreover, the GI50 is 1.53 µM (inactive) in [10]; 15.8 µM (inactive) in test [11]; 13.3 µM (inactive) in [12]; 16.5 µM (inactive) in test [13]; 2.14 µM in [14]; 1.93 µM (inactive) in [15]. The GI50 in [16] is 12.2 µM (inactive).
Consider `COc1ccc(NC(=O)CCc2cc(-c3ccc(O)c(OC)c3)nc(NC#N)n2)cc1`, for which the GI50 in [17], in test [2], in [3], in test [4], in test [5] and in test [20] was > 100 µM (inactive) throughout. For the same molecule, the GI50 in test [7], in [8], in [9], in [10], in test [11] and in [12] was > 100 µM (inactive) each time. Besides, the GI50 is > 100 µM (inactive) in [13], more than 100 µM in [14], > 100 µM (inactive) in test [15] and > 100 µM (inactive) in test [16].
With `Clc1ccc(-c2nnc(-c3nn(-c4ccccc4)c4nc5ccccc5nc34)o2)cc1`, the GI50 is 76 µM (inactive) in test [17]; 47.5 µM (inactive) in test [1]; > 100 µM (inactive) in test [2]; > 100 µM (inactive) in [3]; > 100 µM (inactive) in test [4]; 65.3 µM (inactive) in [5]. Also, the GI50 in test [6] is > 100 µM (inactive); in [7], 38.2 µM (inactive); in [8] it was > 100 µM (inactive); in test [9], > 100 µM (inactive); in test [10], 22.5 µM (inactive); in [11], > 100 µM (inactive). Moreover, the GI50 in test [12] is > 100 µM (inactive); in [13], > 100 µM (inactive); in [14] it was 55 µM; in test [15] it was 18.9 µM (inactive); in [16], 67.8 µM (inactive).
`COc1ccc(-c2oc(/C=N/c3ccccc3)c([N+](=O)[O-])c2-c2ccc(OC)c(OC)c2)cc1OC`: the GI50 in [17] was > 100 µM (inactive); in test [1] it was > 100 µM (inactive); in test [2] it was > 100 µM (inactive); in test [4], > 100 µM (inactive); in test [5], > 100 µM (inactive); in test [20], 65.6 µM (inactive). In addition, the GI50 in test [6], in test [7], in [8], in [9], in test [10] and in [11] was > 100 µM (inactive) each time. In addition, the GI50 in test [12] is > 100 µM (inactive); in test [13], > 100 µM (inactive); in [14], more than 100 µM; in test [15] it was > 100 µM (inactive); in test [16], > 100 µM (inactive).
On to `O=[N+]([O-])C1C2C=CC(C2)[C@H]1c1ccco1` (some centres undefined), for which the GI50 in test [17], in test [1], in test [2], in test [3], in test [4] and in [5] was > 100 µM (inactive) each time. In addition, the GI50 in [20] is 0.259 µM (active); in test [6], > 100 µM (inactive); in test [7], > 100 µM (inactive); in [8], > 100 µM (inactive); in test [9], > 100 µM (inactive); in [10], > 100 µM (inactive). Besides, the GI50 is > 100 µM (inactive) in test [11]; > 100 µM (inactive) in [13]; more than 100 µM in [14]; > 100 µM (inactive) in test [15]; > 100 µM (inactive) in test [16].
